Literature values, collected in patent US20060177499A1, “Method for the manufacture of a pharmaceutical composition in the form of tablets containing a fibrate and tablets obtained according to the method” (priority 2003, published 2006).

Conditions: long-term treatment; e.g. rhabdomyolysis, asthenia, increase of transaminases, hepatic toxicity

CC(C)OC(=O)C(C)(C)Oc1ccc(C(=O)c2ccc(Cl)cc2)cc1 [fenofibrate, Isopropyl 2-[4-(4-chlorobenzoyl)phenoxy]-2-methylpropionate]
adverse effects: not completely devoid of adverse effects
